Test results published in patent publication US20220296584A1, “Membrane Active Molecules” (priority 2017, published 2022).
Read-outs that look alike come from different tables or passages of the source.

Columns and labels:
Tadpoles = assay: Tadpole movement suppression (anesthetic efficacy); assay type: in vivo
Method: Tadpoles were placed in a petri dish containing aquarium water. Four to eight tadpoles were placed in each petri dish. The aquarium water contained the specified test compound at the listed concentration. When the tadpoles stopped moving, a plastic rod was used to elicit motion once again by contact between the rod and tadpole. […] From this and the number of subjects, the percent of tadpoles in which movement was suppressed were calculated.
After 1 to 30 minutes, they were again contacted with a rod to ensure the anesthetic effect had worn off
In some examples, subanesthetic concentrations of ethanol were added into the aquarium water. Tadpoles in which movement was prevented with exposure to a test compound and ethanol but not with exposure to a test compound alone were classified as partial anesthetics.

mice = conditions: intravenously; for Observed effect on the animals: 62.5 mM solution in intralipid
mouse = assay: Anesthetic effect in mice after subcutaneous or intravenous injection of aqueous solutions; assay type: in vivo; conditions: mouse
Method: Butyric acid was dissolved in water to form an 8 M solution. 0.5 mL of the 8 M solution of butyric acid was injected subcutaneously (at the back of the neck) into the mouse.
3-hydroxybutyric acid was dissolved in water to form 1 M, 1.5 M, and 2 M solutions. 0.2 mL of a 1.5 M solution of 3-hydroxybutyric acid was injected into a tail vein of a CD-1 mouse. […] This was repeated for at least 2 more times on subsequent days.
Ethylmalonic acid was dissolved in water to form 2 M, 3 M, and 4 M solutions. 0.2 mL of a 3 M solution of ethylmalonic acid was injected into a tail vein of a mouse. […] This was repeated for at least 2 more times on subsequent days.
Ethylmalonic acid was dissolved in water to form a 4 M solution. 0.5 mL of the 4 M solution of ethylmalonic acid was injected subcutaneously into the mouse.

[1] = Concentration (mM): 100 + 150 EtOH
[2] = Concentration (mM): 250 + 150 EtOH
[3] = Concentration (mM): 125 + 150 EtOH
[4] = Concentration (mM): 50 + 150 EtOH
[5] = Concentration (mM): 25 + 150 EtOH
[6] = Concentration (mM): 12.5 + 150 EtOH
[7] = Concentration (mM): 20 + 150 EtOH

## N[C@@H](CO)C(=O)O [L-Serine, Serine]
Tadpoles; Concentration (mM): 114
  Movement suppressed (%): 0%
Tadpoles; Concentration (mM): 229 + 150 EtOH
  Movement suppressed (%): 60%
Tadpoles; Concentration (mM): 300 + 150 EtOH
  Movement suppressed (%): 100%

## C[C@@H](O)CC(=O)O [R-3-hydroxybutyric acid, (R)-3-Hydroxybutanoic acid]
Tadpoles; Concentration (mM): 100
  Movement suppressed (%): 0%
Tadpoles; Concentration (mM): 200
  Movement suppressed (%): 0%
Tadpoles; Concentration (mM): 250
  Movement suppressed (%): 0%
Tadpoles; Concentration (mM): 300
  Movement suppressed (%): 0%
Tadpoles; Concentration (mM): 350
  Movement suppressed (%): 0%
Tadpoles; Concentration (mM): 400
  Movement suppressed (%): 46%
Tadpoles; Concentration (mM): 500
  Movement suppressed (%): 100%

## CC(C)[C@H](N)C(=O)O [L-valine, Valine]
Tadpoles; Concentration (mM): 7.8
  Movement suppressed (%): 0%
Tadpoles; Concentration (mM): 31
  Movement suppressed (%): 0%
Tadpoles; Concentration (mM): 125
  Movement suppressed (%): 0%
Tadpoles; Concentration (mM): 500
  Movement suppressed (%): 40%
Tadpoles; Concentration (mM): 500 + 150 EtOH
  Movement suppressed (%): 100%

## CC(=O)CCC(=O)O [Levulinic acid, 4-oxopentanoic acid]
Tadpoles; [1]
  Movement suppressed (%): 50%

## O=C(NC(O)C(=O)O)c1ccccc1 (stereo not drawn) [Alpha-Hydroxyhippuric acid, 2-Benzamido-2-hydroxyacetic acid]
Tadpoles; Concentration (mM): 5
  Movement suppressed (%): 33%
Tadpoles; Concentration (mM): 5 + 20 EtOH
  Movement suppressed (%): 66%
Tadpoles; Concentration (mM): 10
  Movement suppressed (%): 100%

## CCC(C)C(=O)C(=O)O (stereo not shown) [3-Methyl-2-oxovaleric acid, 3-Methyl-2-oxopentanoic acid]
Tadpoles; Concentration (mM): 250
  Movement suppressed (%): 33%

## ethyl isovaleric acid
mice
  Observed effect on the animals: lethargic and those loss coordination

## NCCCC[C@H](N)C(=O)O [Lysine]
Tadpoles; [2]
  Movement suppressed (%): 50%

## O=C(O)CC(=O)C(=O)O [Oxaloacetic acid, 2-Oxosuccinic acid]
Tadpoles; [3]
  Movement suppressed (%): 100%

## CCC(C(=O)O)C(=O)O [Ethyl Malonic Acid, 2-Ethylmalonic acid]
mouse; 0.2 mL of 3 M solution in water, tail vein
  Observed effect on the mouse: became unconscious
mouse; 0.5 mL of 4 M solution in water, subcutaneously
  Observed effect on the mouse: became sedated, anesthetized, or lose consciousness
mouse; 2 M solution in water, tail vein
  Observed effect on the mouse: did not have any observable effect
mouse; 4 M solution in water, tail vein
  Lethality: lethal
Tadpoles; Concentration (mM): 16
  Movement suppressed (%): 0%
Tadpoles; Concentration (mM): 62.5
  Movement suppressed (%): 0%
Tadpoles; Concentration (mM): 125
  Movement suppressed (%): 100%
Tadpoles; Concentration (mM): 250
  Movement suppressed (%): 100%

## O=C(O)C(O)c1ccccc1 (stereo not shown) [Mandelic acid, 2-Hydroxy-2-phenylacetic acid]
Tadpoles; Concentration (mM): 250
  Movement suppressed (%): 0%
Tadpoles; Concentration (mM): 300
  Movement suppressed (%): 100%
Tadpoles; Concentration (mM): 500
  Movement suppressed (%): 100%

## CC[C@H](C)[C@H](N)C(=O)O [Isoleucine]
Tadpoles; Concentration (mM): 25
  Movement suppressed (%): 0%
Tadpoles; [1]
  Movement suppressed (%): 60%

## O=C(O)CCCCC(=O)O [Adipic acid, Hexanedioic acid]
Tadpoles; Concentration (mM): 50
  Movement suppressed (%): 0%
Tadpoles; [4]
  Movement suppressed (%): 83%

## O=C(O)[C@@H]1CCCN1 [Proline]
Tadpoles; Concentration (mM): 103
  Movement suppressed (%): 0%
Tadpoles; Concentration (mM): 411 + 150 EtOH
  Movement suppressed (%): 100%

## O=C(O)CCCCCCC(=O)O [Suberic acid, Octanedioic acid]
Tadpoles; Concentration (mM): 10
  Movement suppressed (%): 50%

## Tartaric acid [L-Tartaric acid]
Tadpoles; Concentration (mM): 50
  Movement suppressed (%): 0%

## CC(C)C(C(=O)O)C(=O)O [Isopropyl malonic acid, 2-isopropylmalonic acid]
Tadpoles; Concentration (mM): 1.6
  Movement suppressed (%): 0%
Tadpoles; Concentration (mM): 6.25
  Movement suppressed (%): 0%
Tadpoles; Concentration (mM): 25
  Movement suppressed (%): 50%
Tadpoles; [5]
  Movement suppressed (%): 40%

## C[C@H](N)C(=O)O [Alanine]
Tadpoles; Concentration (mM): 62.5 + 150 EtOH
  Movement suppressed (%): 20%
Tadpoles; [3]
  Movement suppressed (%): 80%

## O=C(O)CCCC(=O)O [Glutaric acid]
Tadpoles; Concentration (mM): 7.8
  Movement suppressed (%): 0%
Tadpoles; Concentration (mM): 31
  Movement suppressed (%): 0%
Tadpoles; Concentration (mM): 125
  Movement suppressed (%): 0%
Tadpoles; [3]
  Movement suppressed (%): 60%

## C[C@H](O)CC(=O)O [S-3-hydroxybutyric acid, (S)-3-Hydroxybutanoic acid]
Tadpoles; Concentration (mM): 100
  Movement suppressed (%): 0%
Tadpoles; Concentration (mM): 200
  Movement suppressed (%): 0%
Tadpoles; Concentration (mM): 250
  Movement suppressed (%): 14%
Tadpoles; Concentration (mM): 300
  Movement suppressed (%): 17%
Tadpoles; Concentration (mM): 350
  Movement suppressed (%): 50%
Tadpoles; Concentration (mM): 400
  Movement suppressed (%): 92%
Tadpoles; Concentration (mM): 500
  Movement suppressed (%): 100%

## C[N+](C)(C)CCO [Choline]
Tadpoles; Concentration (mM): 46 + 150 EtOH
  Movement suppressed (%): 0%
Tadpoles; [1]
  Movement suppressed (%): 40%
Tadpoles; Concentration (mM): 120 + 150 EtOH
  Movement suppressed (%): 66%

## O=C(O)Cc1c[nH]c2ccccc12 [Indole-3-acetic acid, 2-(1H-indol-3-yl)acetic acid]
Tadpoles; Concentration (mM): 12.5
  Movement suppressed (%): 0%
Tadpoles; [6]
  Movement suppressed (%): 100%

## O=C(O)C(=O)Cc1ccccc1 [Phenylpyruvic acid, 2-Oxo-3-phenylpropanoic acid]
Tadpoles; Concentration (mM): 62.5
  Movement suppressed (%): 100%
Tadpoles; Concentration (mM): 125
  Movement suppressed (%): 100%

## O=C(O)c1cc(O)c2ccccc2n1 [Kynurenic acid, 4-hydroxyquinoline-2-carboxylic acid]
Tadpoles; Concentration (mM): 12.5
  Movement suppressed (%): 0%
Tadpoles; [6]
  Movement suppressed (%): 100%

## CCC(C)CC(=O)O (stereo not shown) [3-Methylvaleric acid, 3-Methylpentanoic acid]
Tadpoles; Concentration (mM): 20
  Movement suppressed (%): 25%
Tadpoles; [7]
  Movement suppressed (%): 66%

## Cc1cccc(C(=O)NCC(=O)O)c1 [3-Methylhippuric acid, (3-Methylbenzoyl)glycine]
Tadpoles; Concentration (mM): 3.125
  Movement suppressed (%): 0%
Tadpoles; Concentration (mM): 3.125 + 150 EtOH
  Movement suppressed (%): 100%

## CCO [Ethanol control, ethanol, reference compound]
Tadpoles; Concentration (mM): 100
  Movement suppressed (%): 0%
Tadpoles; Concentration (mM): 150
  Movement suppressed (%): 0%
Tadpoles; Concentration (mM): 200
  Movement suppressed (%): 0%
Tadpoles; Concentration (mM): 250
  Movement suppressed (%): 33%

## Guanidine
Tadpoles; Concentration (mM): 62.5
  Movement suppressed (%): 0%

## O=C(O)c1ccc2ccccc2n1 [Quinaldic acid, Quinoline-2-carboxylic acid]
Tadpoles; Concentration (mM): 25
  Movement suppressed (%): 16%
Tadpoles; [5]
  Movement suppressed (%): 60%

## CCCC(=O)OCC [ethyl butyrate]
mice
  Observed effect on the animals: lethargic and those loss coordination
mice; 250 mM solution in intralipid
  Lethality: lethal
mice; 1M solution in intralipid
  Lethality: lethal

## Cc1ccc(C(=O)NCC(=O)O)cc1 [4-Methylhippuric acid, (4-Methylbenzoyl)glycine]
Tadpoles; [5]
  Movement suppressed (%): 33%
Tadpoles; Concentration (mM): 50
  Movement suppressed (%): 0%
Tadpoles; [4]
  Movement suppressed (%): 100%
Tadpoles; Concentration (mM): 150 EtOH (no test compound concentration printed)
  Movement suppressed (%): 0%

## CCOC(=O)[C@@H](O)c1ccccc1 [ethyl (S)-(+)-mandelate]
mice
  Observed effect on the animals: lethargic and those loss coordination
mice; 250 mM solution in intralipid
  Lethality: lethal
mice; 1M solution in intralipid
  Lethality: lethal

## N[C@@H](CCC(=O)O)C(=O)O [Glutamate, Glutamic acid]
Tadpoles; [4]
  Movement suppressed (%): 100%

## NC(=O)CC[C@H](N)C(=O)O [Glutamine]
Tadpoles; Concentration (mM): 25
  Movement suppressed (%): 0%
Tadpoles; Concentration (mM): 50
  Movement suppressed (%): 100%
Tadpoles; Concentration (mM): 100
  Movement suppressed (%): 100%

## NC(=O)C[C@H](N)C(=O)O [L-Asparagine, Asparagine]
Tadpoles; Concentration (mM): 100
  Movement suppressed (%): 0%
Tadpoles; [1]
  Movement suppressed (%): 66%

## CCC(O)C(=O)O (stereo not shown) [2-Hydroxybutyric acid, 2-hydroxybutyric acid]
Tadpoles; Concentration (mM): 125
  Movement suppressed (%): 0%
Tadpoles; [3]
  Movement suppressed (%): 86%

## CC(=O)CCCC(=O)O [4-Acetylbutyric acid, 5-Oxohexanoic acid]
Tadpoles; Concentration (mM): 25
  Movement suppressed (%): 0%
Tadpoles; [5]
  Movement suppressed (%): 80%

## CC(C)(C(=O)O)C(=O)O [Dimethylmalonic acid]
Tadpoles; Concentration (mM): 125
  Movement suppressed (%): 60%
Tadpoles; Concentration (mM): 250
  Movement suppressed (%): 60%

## CCOC(=O)C(CC)C(=O)OCC [diethyl ethyl malonate, Diethyl ethyl malonate]
mice
  Observed effect on the animals: lethargic and those loss coordination
mice; 250 mM solution in intralipid
  Lethality: lethal
mice; 1M solution in intralipid
  Lethality: lethal

## CCOC(=O)C(CC)(C(=O)OCC)c1ccccc1 [diethyl ethylphenylmalonate]
mice
  Observed effect on the animals: lethargic and those loss coordination
mice; 250 mM solution in intralipid
  Lethality: lethal
mice; 1M solution in intralipid
  Lethality: lethal

## O=C(O)CCC(=O)C(=O)O [2-Oxoglutaric acid]
Tadpoles; Concentration (mM): 200 + 150 EtOH
  Movement suppressed (%): 86%
Tadpoles; [2]
  Movement suppressed (%): 100%

## N=C(N)NCCC[C@H](N)C(=O)O [Arginine]
Tadpoles; Concentration (mM): 46.5
  Movement suppressed (%): 0%
Tadpoles; Concentration (mM): 192 + 150 EtOH
  Movement suppressed (%): 83%

## N[C@@H](Cc1c[nH]c2ccccc12)C(=O)O [Tryptophan]
Tadpoles; Concentration (mM): 12.5
  Movement suppressed (%): 0%
Tadpoles; [6]
  Movement suppressed (%): 80%

## Succinic acid
Tadpoles; Concentration (mM): 62.5
  Movement suppressed (%): 0%

## CC(CC(=O)O)C(=O)O (stereo not shown) [Methylsuccinic acid]
Tadpoles; [2]
  Movement suppressed (%): 43%

## CC(C)CCC(=O)O [4-Methylvaleric acid]
Tadpoles; Concentration (mM): 20
  Movement suppressed (%): 0%
Tadpoles; [7]
  Movement suppressed (%): 100%

## Fumaric acid
Tadpoles; Concentration (mM): 25
  Movement suppressed (%): 40%

## CC(C)(O)CC(=O)O [3-Hydroxy-3-methylbutyric acid, 3-Hydroxy-3-methylbutanoic acid]
Tadpoles; Concentration (mM): 1.6
  Movement suppressed (%): 0%
Tadpoles; Concentration (mM): 6.25
  Movement suppressed (%): 0%
Tadpoles; Concentration (mM): 25
  Movement suppressed (%): 0%
Tadpoles; [4]
  Movement suppressed (%): 100%
Tadpoles; Concentration (mM): 100
  Movement suppressed (%): 100%

## CC(C)(C)CC(=O)O [3,3-Dimethylbutyric acid, 3,3-Dimethylbutanoic acid]
Tadpoles; Concentration (mM): 25
  Movement suppressed (%): 100%
